Experiment: Molecular penetration into the brain after focused ultrasound (FUS) induced BBB opening
Settings: in vivo
Excerpt: First, there are three testing substances, and their molecular size spreading from 1 to nearly 150 kDa are employed in second procedure. Three substances are Gd-DTPA, Evans blue, and Bevacizumab.
FIGS. 10A and 10B are about that selected the UEI ranging of 0.65 and 1.25 for testing, and under testing the center frequency of only 0.4 MHz is employed. FIG. 10A illustrates the measured molecular penetration (molecule 1-3) of different exposure conditions (UEI set to 0, 0.65, and 1.25). FIG. 10B illustrates the measured molecular penetration (molecule 1-3) of different molecular ranges (UEI set to 0, 0.65, and 1.25). These measurement results will be compared with the final predict results.
The molecule 1 has the highest penetration because of its small molecular size (1 kDa; the predicted concentration range is 1.7 to 6.2 μM during UEI ranging of 0.65-1.25). […]
Integrating of the UEI and the UII by above uniform and calibrated method steps, in this embodiment, it is possible to examine the three molecular penetrations reflecting to the four imaging indexes with different UEIs. Another experiment is conducted, the three molecular penetrations was measured (shown in FIG. 10), and comparing to the quantified predict results of the UEI. The correlation of UEI is evaluated under the UII.

| Compound | predicted concentration range (molecular penetration) |
| --- | --- |
| Cc1cc(-c2ccc(/N=N/c3ccc4c(S(=O)(=O)O)cc(S(=O)(=O)O)c(N)c4c3O)c(C)c2)ccc1/N=N/c1ccc2c(S(=O)(=O)O)cc(S(=O)(=O)O)c(N)c2c1O [molecule 2, Evans blue] | 0.7 to 3.1 µM |
| Bevacizumab [molecule 3] | 0.02 to 2.1 µM |
